Assay results as given in paper PMC10529583, “A new polymodal gating model of the proton-activated chloride channel” (PLOS Biology, 2023).

Legend:
Assay type in all cases: cell-based
[1] = target: T1, human PAC channel (wt-PAC) (Homo sapiens, UniProt Q9H813); experiment: whole-cell patch clamp, inhibition of proton-evoked current; conditions: pH 4.6, open-state pore site (site 2, second site), voltage ramp -70 to +80 mV
T1 construct: gene PACC1; full-length, homotrimer; pCMV-blank, transiently expressed in PACC1-knockout HEK293T cells; library screen on endogenous PAC of HEK293T cells
T1 sequence (Q9H813 whole entry): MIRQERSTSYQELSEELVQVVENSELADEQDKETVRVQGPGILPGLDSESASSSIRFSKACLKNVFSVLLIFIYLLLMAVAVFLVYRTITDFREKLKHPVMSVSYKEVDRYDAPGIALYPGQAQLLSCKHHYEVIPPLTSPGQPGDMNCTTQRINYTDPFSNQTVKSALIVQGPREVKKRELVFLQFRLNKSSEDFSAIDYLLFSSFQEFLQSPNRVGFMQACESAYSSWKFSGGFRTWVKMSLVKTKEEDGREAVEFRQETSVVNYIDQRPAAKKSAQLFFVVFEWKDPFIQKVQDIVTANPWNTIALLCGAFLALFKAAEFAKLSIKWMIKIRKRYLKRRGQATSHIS

[2] = target: T2, human PAC channel (wt-PAC) (Homo sapiens, UniProt Q9H813, A321C); experiment: whole-cell patch clamp, inhibition of basal current
T2 construct: gene PACC1; full-length, homotrimer; pCMV-blank, transiently expressed in PACC1-knockout HEK293T cells; library screen on endogenous PAC of HEK293T cells
T2 sequence (Q9H813 whole entry A321C): as the sequence (Q9H813 whole entry) above, with A321C counted along it

[3] = target: T3, human PAC channel (wt-PAC) (Homo sapiens, UniProt Q9H813, A81C/L309A/P303A/T306A); experiment: whole-cell patch clamp, inhibition of current
T3 construct: gene PACC1; full-length, homotrimer; pCMV-blank, transiently expressed in PACC1-knockout HEK293T cells; library screen on endogenous PAC of HEK293T cells
T3 sequence (Q9H813 whole entry A81C/P303A/T306A/L309A): as the sequence (Q9H813 whole entry) above, with A81C, P303A, T306A, L309A counted along it

[4] = target: T1, human PAC channel (wt-PAC); experiment: whole-cell patch clamp, activation of proton-evoked current
[5] = target: T2, human PAC channel (wt-PAC); experiment: whole-cell patch clamp, activation of current
[6] = target: T4, human PAC channel (wt-PAC) (Homo sapiens, UniProt Q9H813, F196A); experiment: whole-cell patch clamp, inhibition of current
T4 construct: gene PACC1; full-length, homotrimer; pCMV-blank, transiently expressed in PACC1-knockout HEK293T cells; library screen on endogenous PAC of HEK293T cells
T4 sequence (Q9H813 whole entry F196A): as the sequence (Q9H813 whole entry) above, with F196A counted along it

[7] = target: T5, human PAC channel (wt-PAC) (Homo sapiens, UniProt Q9H813, F196A/R237A); experiment: whole-cell patch clamp, inhibition of current
T5 construct: gene PACC1; full-length, homotrimer; pCMV-blank, transiently expressed in PACC1-knockout HEK293T cells; library screen on endogenous PAC of HEK293T cells
T5 sequence (Q9H813 whole entry F196A/R237A): as the sequence (Q9H813 whole entry) above, with F196A, R237A counted along it

[8] = target: T6, human PAC channel (wt-PAC) (Homo sapiens, UniProt Q9H813, R237A); experiment: whole-cell patch clamp, effect of […] compound on current; conditions: root pH of the mutant; inhibited, not activated
T6 construct: gene PACC1; full-length, homotrimer; pCMV-blank, transiently expressed in PACC1-knockout HEK293T cells; library screen on endogenous PAC of HEK293T cells
T6 sequence (Q9H813 whole entry R237A): as the sequence (Q9H813 whole entry) above, with R237A counted along it

[9] = target: T7, human PAC channel (wt-PAC) (Homo sapiens, UniProt Q9H813, P303A/T306A/L309A); experiment: whole-cell patch clamp, activation of current; conditions: pH 5.34; activation (site 1)
T7 construct: gene PACC1; full-length, homotrimer; pCMV-blank, transiently expressed in PACC1-knockout HEK293T cells; library screen on endogenous PAC of HEK293T cells
T7 sequence (Q9H813 whole entry P303A/T306A/L309A): as the sequence (Q9H813 whole entry) above, with P303A, T306A, L309A counted along it

[10] = target: T8, human PAC channel (wt-PAC) (Homo sapiens, UniProt Q9H813, A81C); experiment: whole-cell patch clamp, inhibition of current
T8 construct: gene PACC1; full-length, homotrimer; pCMV-blank, transiently expressed in PACC1-knockout HEK293T cells; library screen on endogenous PAC of HEK293T cells
T8 sequence (Q9H813 whole entry A81C): as the sequence (Q9H813 whole entry) above, with A81C counted along it

IC50 [1]: 8.3 ± 1.0 µM
IC50 [2]: 11.8 ± 1.9 µM
IC50 [3]: ~200 µM
EC50 [4]: 0.6 ± 0.2 µM
EC50 [5]: 1 ± 0.4 µM
IC50 [6]: 3 ± 0.5 µM
IC50 [7]: 5.7 ± 0.9 µM
IC50 [10]: 18.3 ± 3 µM
SMILES: Cc1occc1C(=O)Nc1ccc(I)cc1C(=O)O [C77304, 5–iodo–2–(2–methylfuran–3–carboxamido)benzoicacid]
whole-cell patch clamp, effect of 5 μM compound on current [8]: currents mediated by the PAC/R237A mutant, but not any others, were significantly inhibited
whole-cell patch clamp, activation of current [9]: the P303A/T306A/L309A mutations did not affect the activation effect of C77304 on the channel
